US9220264B2, “Multimeric forms of antimicrobial peptides” (Singapore Health Services Pte Ltd., priority 2008, dated 2015)
Converted amounts (≈) assume the structure as drawn. Bridge positions count the residues as written; N and C are the ends. Peptide text beside a SMILES is read from it. I, II: the chains in the order shown.

How the values were obtained:
Kp ATCC 10031 = type: cell-based, Klebsiella pneumoniae; details: ATCC 10031, 24 h
Description: The minimum inhibitory concentration (MIC) was determined using a broth microdilution method. Different strains of bacterial cells were grown in Mueller Hinton Broth (MHB) overnight. 100 μl of adjusted inoculum in MHB was added to 100 μl of each dilution of peptide or antibiotics dissolved in the broth, so as to yield a final cell density of 10^5 to 10^6 cfu/ml in each well of a microtitre plate. Additional microtitre plates may be used as necessary, if more wells are required for the assay or duplicate plates are required. The microtitre plates were incubated at 35° C. for 24 h and the absorbance at 600 nm (OD600) was monitored every 30 minutes. […] A positive control well contained the broth and organisms (no peptides/antibiotics), and a negative control well contains only the broth. The MIC of peptides for each clinical isolate or reference organism was recorded as the lowest concentration of peptide/antibiotic that inhibited visible growth of the test organism. […]

LPS = assay: Competitive inhibition assay: effect of exogenous LPS on inhibitory activity; type: cell-based; details: peptide at 1×MIC in MHB; compared to B2088; FIG. 10(C)
Description: Effect of LPS and Mg^2+ on MIC: To examine the interaction of peptide and LPS, the concentration of the latter was added exogenously from (0.001-100 mg/ml) in MHB at a peptide concentration of 1×MIC. The % inhibition was estimated and the amount of LPS required for 50% of antibacterial activity (IC50) was determined.

P. aeruginosa ATCC 9027 = assay: Outer membrane (OM) permeability assay (NPN uptake); type: cell-based, Pseudomonas aeruginosa; details: 5 mM HEPES buffer pH 7.2; 10 μM NPN; FIG. 13
Description: The membrane impermeable probe N-phenyl-1-naphthyl amine (NPN) was used to probe the OM permeability of peptides. An overnight culture of P. aeruginosa ATCC 9027 was harvested by centrifugation (3000 rpm, 4° C.). The pellet was washed 2 times and resuspended in 5 mM HEPES buffer (pH 7.2) to OD600 of 0.4. The cells were placed in a 10 mm stirred cuvette and NPN was added to a final concentration of 10 μM. Appropriate concentrations of B2088 was added and the increase in fluorescence intensity was monitored on a Quanta Master fluorescence spectrophotometer (Photon Technology International, New Jersey, USA). The excitation and emission wavelengths were set at 350 and 410 nm with slid widths at 2 and 5 nm, respectively. The % NPN uptake was calculated relative to the increase in NPN fluorescence intensity after the addition of 50 μM polymyxin B.
The peptide concentration required to cause 50% increase in the NPN fluorescence intensity (PC50) was measured.

PA 28753 = assay: Bacterial viability assay (ED50); type: cell-based, Pseudomonas aeruginosa; details: 10 mM phosphate buffer; 37° C.; 22 h; read-out: ED50 (Effective dose to kill 50% of bacterial cells)
Description: (§1) Cell viability was conducted for two Gram-negative bacteria (Pa 9027 and Pa 27853). The cultures were grown overnight on trypticase soy (TS) agar and a few isolated colonies were inoculated to achieve a turbidity equivalent to 0.5 McFarland standard. The cell concentration was adjusted to 10^6 CFU/ml with 10 mM phosphate buffer and separated into different tubes to get final concentration of 10^5 CFU/ml. The peptides were added to the individual tubes to obtain concentrations of ⅛ MIC, ¼ MIC, ½ MIC, 1 MIC, 2 MIC and 4 MIC. The tubes were incubated at 37° C. for 22 h. Serial dilution was performed and 100 μL of the suspension was aliquot onto Mueller Hinton Agar (MHA) plate. The plates were incubated for 24 h at 37° C. for colony counting. Positive control was performed at Oh and 22h.

PA 9027 = assay: Bacterial viability assay (ED50); type: cell-based, Pseudomonas aeruginosa
Description: as §1

P. aeruginosa = assay: Time-kill kinetics assay; type: cell-based, Pseudomonas aeruginosa; details: both Pseudomonas strains; 1× and 2×MIC; USP phosphate buffer pH 7.2; 35° C.; FIG. 12
Description: The kinetics of bactericidal action was performed by the assay reported before. Briefly, few colonies of overnight grown P. aeruginosa strains were collected from tryptic soy agar plate and suspended in US pharmacopeia phosphate buffer (pH 7.2). The suspension was adjusted to an initial inoculum of 10^6 CFU/mL and incubated with various concentrations of B2088 and B2088—99 at 35° C. 0.1 ml aliquots were withdrawn at various time intervals, diluted 10^2-10^4 fold using the same buffer, plated on tryptic soy agar plates and incubated at 35° C. The colonies were counted after 24 h incubation and expressed as CFU/ml. Buffer without peptides served as a positive control and % bacterial viability is estimated using the following equation: Bacterial viability=1−(CFU/mL)peptide/(CFU/mL)control*100

## N=C(N)NCCC[C@H](NC(=O)CNC(=O)CNC(=O)[C@H](CCCCN)NC(=O)[C@H](CCCNC(=N)N)NC(=O)CNC(=O)[C@@H](N)CCCNC(=N)N)C(=O)N[C@@H](CCCNC(=N)N)C(=O)NCCCC[C@H](NC(=O)[C@H](CCCNC(=N)N)NC(=O)[C@H](CCCNC(=N)N)NC(=O)CNC(=O)CNC(=O)[C@H](CCCCN)NC(=O)[C@H](CCCNC(=N)N)NC(=O)CNC(=O)[C@@H](N)CCCNC(=N)N)C(=O)N[C@@H](CCCCN)C(=O)O [B2088_99, (RGRKGGRR)2KK] (I: H-RGRKGGRRKK-OH / II: H-RGRKGGRR; amide I:9-II:C; N-terminus assumed)
Kp ATCC 10031
  Minimum inhibitory concentration (MIC): 1.5 µM (≈ 3.18 µg/mL)
LPS
  concentration of LPS to suppress the inhibitory activity: higher concentration of LPS
P. aeruginosa ATCC 9027
  PC50 (peptide concentration to cause 50% increase in NPN fluorescence intensity): higher than B2088
PA 28753
  EC50: 480 ± 30 nM
PA 9027; 10 mM phosphate buffer, 37° C., 22 h, read-out: ED50 (Effective dose to kill 50% of bacterial cells)
  EC50: 330 ± 50 nM
PA 9027; Pa 9027 and Pa 27853, Table 22 and FIG. 11
  ED50 compared with B2088: two times lower
P. aeruginosa
  kill kinetics: faster kill kinetics
